In US20010039275A1, “Use of 2,4-diaminothiazole derivatives” (priority 2000, published 2001):

SMILES	melting point [°C]
CCN(CC)c1ccc(C(=O)c2sc(Nc3ccccc3)nc2N)cc1 [Example 7, (4-Amino-2-phenylaminothiazol-5-yl)-(4-diethylaminophenyl)methanone]	214 to 216
COC(=O)c1sc(Nc2ccccc2)nc1N [Example 38, 4-Amino-2-phenylaminothiazole-5-carboxylic acid methyl ester]	173 to 174
Nc1nc(Nc2ccccc2)sc1C(=O)c1c(Cl)cccc1Cl [Example 42, (4-Amino-2-phenylaminothiazol-5-yl)-(2,6-dichlorophenyl)methanone]	245 to 246
Nc1nc(Nc2ccccc2)sc1C(=O)c1cccc(OCc2ccccc2)c1 [Example 16, (4-Amino-2-phenylaminothiazol-5-yl)-(3-benzyloxyphenyl)methanone]	121 to 124
Cc1cc(C(=O)c2sc(Nc3ccccc3)nc2N)ccc1Cl [Example 28, (4-amino-2-phenylaminothiazol-5-yl)-(4-chloro-3-methylphenyl)methanone]	173 to 175
COc1ccc(C(=O)c2sc(Nc3ccccc3)nc2N)c(OC)c1 [Example 30, (4-Amino-2-phenylaminothiazol-5-yl)-(2,4-dimethoxyphenyl)methanone]	196 to 198
CON(C)C(=O)c1sc(Nc2ccccc2)nc1N [Example 46, 4-Amino-2-phenyiaminothiazole-5-carboxylic acid methoxymethylamide]	152 to 153
COc1cccc(OC)c1C(=O)c1sc(Nc2ccccc2)nc1N [Example 37, (4-Amino-2-phenylaminothiazol-5-yl)-(2,6-dimethoxyphenyl)methanone]	224 to 226
Nc1nc(Nc2ccccc2)sc1C(=O)N1CCOCC1 [Example 49, (4-Amino-2-phenylaminothiazol-5-yl)morpholin-4-ylmethanone]	212 to 213
Cc1cc(C)c(C(=O)c2sc(Nc3ccccc3)nc2N)c(C)c1 [Example 35, (4-Amino-2-phenylaminothiazol-5-yl)-(2,4,6-trimethylphenyl)methanone]	198 to 200
Nc1nc(Nc2ccc(Br)cc2)sc1C(=O)C1CC1 [Example 17, [4-Amino-2-(4-bromophenylamino)thiazol-5-yl]cyclopropylmethanone]	204 to 206
Nc1nc(Nc2ccccc2)sc1C(=O)c1ccc(O)c(O)c1 [Example 29, (4-Amino-2-phenylaminothiazol-5-yl)-(3,4-dihydroxyphenyl)methanone]	222 to 224
Nc1nc(Nc2ccccc2)sc1C(=O)c1ccc(F)c(F)c1 [Example 12, (4-Amino-2-phenylaminothiazol-5-yl)-(3,4-difluorophenyl)methanone]	178 to 180
Nc1nc(Nc2ccccc2)sc1C(=O)c1ccc(Cl)c(Cl)c1 [Example 18, (4-Amino-2-phenylaminothiazol-5-yl)-(3,4-dichlorophenyl)methanone]	195 to 198
CCCNc1nc(N)c(C(=O)c2cccnc2)s1 [Example 32, (4-Amino-2-propylaminothiazol-5-yl)pyridin-3-yl-methanone]	205 to 206
Cc1c(C(=O)c2sc(Nc3ccccc3)nc2N)sc2ccccc12 [Example 19, (4-Amino-2-phenylaminothiazol-5-yl)-(3-methylbenzo[b]thiophen-2-yl) methanone]	165 to 167
Nc1nc(Nc2ccc(Cl)cc2)sc1C(=O)c1cccc(OCc2ccccc2)c1 [Example 54, [4-Amino-2-(4-chlorophenylamino)thiazol-5-yl]-(3-benzyloxyphenyl)methanone]	173 to 174
Nc1nc(Nc2ccccc2)sc1C(=O)c1csc2ccccc12 [Example 40, (4-Amino-2-phenylaminothiazol-5-yl)-benzofblthiophen-3-yl-methanone]	211 to 212
CCC(=O)c1sc(Nc2ccccc2)nc1N [Example 11, 1-(4-Amino-2-phenylaminothiazol-5-yl)propan-1-one]	136 to 139

Now from value to molecule:

melting point [°C]	SMILES
224 to 225	Nc1nc(Nc2ccccc2)sc1C(=O)c1ccc(-c2ccccc2)cc1 [Example 15, (4-Amino-2-phenylaminothiazol-5-yl)biphenyl-4-ylmethanone]
170 to 173	Nc1nc(Nc2ccccc2)sc1C(=O)c1ccc(OC(F)(F)F)cc1 [Example 8, (4-Amino-2-phenylaminothiazol-5-yl)-(4-trifluoromethoxyphenyl)methanone]
201 to 205	Nc1nc(Nc2ccccc2)sc1C(=O)c1ccc(C(F)(F)F)cc1 [Example 6, (4-Amino-2-phenylaminothiazol-5-yl)-(4-trifluoromethylphenyl)methanone]
174 to 175	COc1cccc(C(=O)c2sc(Nc3ccccc3)nc2N)c1 [Example 23, (4-Amino-2-phenylaminothiazol-5-yl)-(3-methoxyphenyl)methanone]
75	Nc1nc(Nc2ccccc2)sc1C(=O)Nc1ccccc1 [Example 45, 4-Amino-2-phenylaminothiazole-5-carboxylic acid phenylamide]
196 to 200	COc1ccccc1C(=O)c1sc(Nc2ccccc2)nc1N [Example 22, (4-Amino-2-phenylaminothiazol-5-yl)-(2-methoxyphenvl)methanone]
227 to 229	Nc1nc(Nc2ccccc2)sc1C(=O)c1ccc2ccccc2c1 [Example 14, (4-Amino-2-phenylaminothiazol-5-yl)naphthalen-2-ylmethanone]
206 to 208	Nc1nc(Nc2ccccc2)sc1C(=O)c1ccc([N+](=O)[O-])cc1 [Example 27, (4-Amino-2-phenylaminothiazol-5-yl)-(4-nitrophenyl)methanone]
167 to 169	Nc1nc(Nc2ccccc2)sc1C(=O)c1ccc(Cl)s1 [Example 21, (4-Amino-2-phenylaminothiazol-5-yl)-(5-chlorothiophen-2-yl)methanone]
217 to 219	Nc1nc(Nc2ccccc2)sc1-c1ccc([N+](=O)[O-])cc1 [Example 20, 4-Amino-2-phenylamino-5-(4-nitrophenyl)thiazole]
161 to 164	Nc1nc(Nc2ccccc2)sc1C(=O)c1cccc(F)c1 [Example 13, (4-Amino-2-phenylaminothiazol-5-yl)-(3-fluorophenyl)methanone]
117 to 119	Nc1nc(Nc2ccccc2)sc1C(=O)c1ccccc1[N+](=O)[O-] [Example 25, (4-Amino-2-phenylaminothiazol-5-yl)-(2-nitrophenyl)methanone]
